# In patent US20100036088A1, “Selective poly-N-substituted glycine antibiotics” (priority 2008, published 2010):
# Where two headings read alike, the source gives them in different places. Numbered stars: 1 amine (or outer) side, 2 acyl side, 3 side chain; on linkers, the order of the positions; unused ones are H or OH. Square brackets hold non-standard residues; d marks the D form. Peptide text beside a SMILES is read from it. X1 = CC(C)[C@H](C)N(CC(=O)[*:2])[*:1]; Nspe = C[C@H](NCC(=O)O)c1ccccc1; Nphe = O=C(O)CNCc1ccccc1; Nlys = NCCCCNCC(=O)O
# Tests used:
# [1] = RP-HPLC elution solvent composition as measure of molecular hydrophobicity; format: physicochemical; details: Table 5; average of three injections; linear 5%-95% acetonitrile/water (0.1% TFA) over 45 minutes, C18 column; measure of hydrophobicity
# From the text: (§1) An initial set of 15 ampetoid analogs was synthesized to determine whether peptoids are affected by structural and sequence modifications in a manner consistent with AMP activities. The designs for ampetoids in this library were derived from two antibacterial and selective amphipathic dodecamers, 1 and 2. Peptoid 1 [H-(Nlys-Nspe-Nspe)4—NH2] is composed of 2/3 Nspe, the peptoid analog of phenylalanine, and 1/3 Nlys, the peptoid analog of lysine (see FIG. 1 for the structures of representative peptoid monomers and corresponding N-substituents). Peptoid 2 [H-(Nlys-Nssb-Nspe)4—NH2] contains 1/3 isoleucine-like Nssb monomers in place of Nspe. The variant sequences were designed to effect changes in chirality, length, hydrophobicity, charge, and amphipathicity. All of these compounds were tested for antibacterial activity against representative BSL1 Gram-negative (E. coli JM109) and Gram-positive (B. subtilis BR151) bacterial strains. As an initial measure of selectivity, the lytic activity of the peptoids was determined against human erythrocytes. Table 1 summarizes the sequences synthesized, the solvent composition at RP-HPLC elution as a relative measure of molecular hydrophobicity, and antibacterial and hemolytic activities.
# Following synthesis, peptoid oligomers can be cleaved from the resin, simultaneously removing the tert-butoxycarbonyl (Boc) protecting group from Nlys residues, by treatment with 10 ml 2,2,2-trifluoroacetic acid (TFA)/triisopropylsilane/H2O (95:2.5:2.5 by volume) for 30 min. The cleavage mixture is then diluted with 25 ml 50% aqueous acetonitrile, frozen, and lyophilized. Dilution and lyophilization is repeated twice more in order to remove excess TFA. Subsequent to cleavage, peptoids are each purified to >97% homogeneity by preparative scale reversed-phase HPLC using a Waters Prep LC 4000 system, with Waters 2487 dual-wavelength UV detection, and gradient elution (solvent A, 0.1 vol % trifluoroacetic acid (TFA) in water; solvent B, 0.1 vol % TFA in acetonitrile) through a Vydac (Hysperia, Calif.) 214TP101550 C4 peptide/protein column (10-15 μm, 300 Å, 5×25 cm). Following prep HPLC, peptoid purities and crude yields were determined from analytical scale HPLC, performed with a Waters 2695 Separations Module with a Waters 2487 dual-wavelength UV detector and gradient elution (solvent A, 0.1 vol % TFA in water; solvent B, 0.1 vol % TFA in acetonitrile) through a Vydac C4 214TP53 peptide/protein column (5 μm, 300 Å, 3.2×250 mm). The precise gradient employed for HPLC depended on the identity and hydrophobicity of the oligomer in question. All analytical HPLC was performed at 0.5 ml/min flow and 58° C. Preparative HPLC was performed at 50 ml/min flow and room temperature.
# [2] = test system: Staphylococcus aureus NRS100 (COL); format: cell-based; details: for MIC S. aureus NRS100 (COL): Table 7A, MRSA
# Experimental: (§2) Antibacterial assays. MICs were determined according to CLSI M7-A6 protocols in a 96-well microtiter plate. In test wells, 50 μL bacterial inoculum (5×10^5 CFU/ml) in Mueller-Hinton broth (MHB) was added to 50 μL peptoid solution in MHB (prepared by 1:2 serial dilutions). Positive controls contained 50 μL inoculum and 50 μL MHB without peptoid. […] MIC values reported were reproducible between three independent experimental replicates, each consisting of two parallel trials. Broad-spectrum antimicrobial susceptibility testing was performed against BSL2 pathogens by Nova Biologicals, Inc. (Conroe, Tex.).
# (§3) Broad-spectrum antibacterial assays. MICs of compounds were determined by microdilution procedure in Mueller-Hinton broth (MHB) in accordance with CLSI M7-A6 protocols in a manner similar to that described for the screen antibacterial assays. Inoculated microtiter plates were incubated at 35° C. for 24 hours prior to the result being recorded. Four ATCC strains that were used as standards are recommended by CLSI: Pseudomonas aeruginosa ATCC 27853, Escherichia coli ATCC 25922, Staphylococcus aureus ATCC 29213 and Enterococcus faecalis ATCC 29212. Other strains from the ATCC collection include Proteus vulgaris ATCC 49132, Proteus mirabilis ATCC 35659, Klebsiella pneumoniae ATCC 33495, Enterobacter aerogenes ATCC 35029 and Serratia marcescens ATCC 13880. S. aureus NRS100 (COL) is a well characterized methicillian-resistant S. aureus (MRSA) strain. The strains S. aureus VAN1 and S. aureus VAN2, vancomycin-resistant MRSA strains that were isolated in Michigan and Pennsylvania, were the first vancomycin-resistant strains clinically isolated. S. aureus NRS119 and S. aureus NRS120 are linezolid-resistant isolates from the Network on Antimicrobial Resistance in S. aureus (NARSA) collection. E. faecalis 99 and E. faecium 106 are vancomycin-resistant enterococcal strains.
# [3] = test system: Proteus mirabilis ATCC 35659; format: cell-based
# Experimental: as §2, §3
# [4] = test system: Staphylococcus aureus NRS119; format: cell-based; details: for MIC S. aureus NRS119: Table 7A, linezolid-resistant
# Experimental: as §2, §3
# [5] = test system: Staphylococcus aureus ATCC 29213; format: cell-based; details: for MIC S. aureus ATCC 29213: Table 7A
# Experimental: as §2, §3
# [6] = test system: Enterococcus faecalis ATCC 29212; format: cell-based; details: for MIC E. faecalis ATCC 29212: Table 7A
# Experimental: as §2, §3
# [7] = test system: Serratia marcescens ATCC 13880; format: cell-based
# Experimental: as §2, §3
# [8] = test system: Enterobacter aerogenes ATCC 35029; format: cell-based; details: for MIC E. aerogenes ATCC 35029: Table 7A
# Experimental: as §2, §3
# Enterococcus faecalis 99 = format: cell-based; details: for MIC E. faecalis 99: Table 7A
# Experimental: as §2, §3
# [9] = test system: Escherichia coli ATCC 25922; format: cell-based; details: for MIC E. coli ATCC 25922: Table 7A
# Experimental: as §2, §3
# [10] = test system: Staphylococcus aureus VAN1; format: cell-based; details: for MIC S. aureus VAN1: Table 7A, MRSA, vancomycin-resistant
# Experimental: as §2, §3
# [11] = test system: Proteus vulgaris ATCC 49132; format: cell-based; details: for MIC P. vulgaris ATCC 49132: Table 7A
# Experimental: as §2, §3
# Enterococcus faecium 106 = format: cell-based; details: for MIC E. faecium 106: Table 7A
# Experimental: as §2, §3
# E. coli JM109 = format: cell-based
# From the text: as §1, §2
Structure (SMILES),HPLC elution (% ACN) [1] [% ACN],MIC Staphylococcus aureus NRS100 (COL) ([2]; NRS100 (COL)) [µM],MIC S. aureus NRS100 (COL) [2] [µg/mL],MIC P. mirabilis ATCC 35659 ([3]; ATCC 35659) [µg/mL],MIC Proteus mirabilis ATCC 35659 ([3]; ATCC 35659) [µM],MIC Staphylococcus aureus NRS119 ([4]; NRS119) [µM],MIC S. aureus NRS119 [4] [µg/mL],MIC Staphylococcus aureus ATCC 29213 ([5]; ATCC 29213) [µM],MIC S. aureus ATCC 29213 [5] [µg/mL],MIC Enterococcus faecalis ATCC 29212 ([6]; ATCC 29212) [µM],MIC E. faecalis ATCC 29212 [6] [µg/mL],MIC S. marcescens ATCC 13880 ([7]; ATCC 13880) [µg/mL],MIC Serratia marcescens ATCC 13880 ([7]; ATCC 13880) [µM],MIC Enterobacter aerogenes ATCC 35029 ([8]; ATCC 35029) [µM],MIC E. aerogenes ATCC 35029 [8] [µg/mL],MIC Enterococcus faecalis 99 (Enterococcus faecalis 99; 99) [µM],MIC Escherichia coli ATCC 25922 ([9]; ATCC 25922) [µM],MIC Staphylococcus aureus VAN1 ([10]; VAN1) [µM],MIC Proteus vulgaris ATCC 49132 ([11]; ATCC 49132) [µM],MIC Enterococcus faecium 106 (Enterococcus faecium 106; 106) [µM],other results
"NCCCCNCC(=O)N(CC(=O)N(CC(=O)N(CCCCN)CC(=O)N(CC(=O)N(CC(=O)N(CCCCN)CC(=O)N(CC(=O)N(CC(=O)N(CCCCN)CC(=O)N(CC(=O)N(CC(N)=O)Cc1ccccc1)Cc1ccccc1)Cc1ccccc1)Cc1ccccc1)Cc1ccccc1)Cc1ccccc1)Cc1ccccc1)Cc1ccccc1 [1achiral, H-(Nlys-Npm-Npm)4-NH2] (H-[Nlys][Nphe][Nphe][Nlys][Nphe][Nphe][Nlys][Nphe][Nphe][Nlys][Nphe][Nphe]-NH2)",59.8,4.7,8,>128,>75,9.4,16,4.7,8,9.4,16,>128,>75,75.0,128,37.5,9.4,4.7,18.7,2.3,MIC E. faecalis 99 (Enterococcus faecalis 99): 64 µg/mL; MIC E. coli ATCC 25922 [9]: 16 µg/mL; MIC S. aureus VAN1 [10]: 8 µg/mL; MIC P. vulgaris ATCC 49132 [11]: 32 µg/mL; MIC E. faecium 106 (Enterococcus faecium 106): 4 µg/mL
"CC(C)[C@H](C)N(CC(=O)N(CC(=O)N(CCCCN)CC(=O)N(CC(=O)N(CC(=O)N(CCCCN)CC(=O)N(CC(=O)N(CC(=O)N(CCCCN)CC(=O)N(CC(=O)N(CC(N)=O)[C@@H](C)c1ccccc1)[C@@H](C)C(C)C)[C@@H](C)c1ccccc1)[C@@H](C)C(C)C)[C@@H](C)c1ccccc1)[C@@H](C)C(C)C)[C@@H](C)c1ccccc1)C(=O)CNCCCCN [1-Nsdp2,5,8,11, H-(Nlys-Nsdp-Nspe)4-NH2] (H-[Nlys][X1][Nspe][Nlys][X1][Nspe][Nlys][X1][Nspe][Nlys][X1][Nspe]-NH2)",63.8,4.8,8,>128,>76.0,9.5,16,4.8,8,4.8,8,>128,>76.0,19.0,32,38.0,4.8,4.8,19.0,2.4,MIC E. faecalis 99 (Enterococcus faecalis 99): 64 µg/mL; MIC E. coli ATCC 25922 [9]: 8 µg/mL; MIC S. aureus VAN1 [10]: 8 µg/mL; MIC P. vulgaris ATCC 49132 [11]: 32 µg/mL; MIC E. faecium 106 (Enterococcus faecium 106): 4 µg/mL
"C[C@@H](c1ccccc1)N(CC(N)=O)C(=O)CN(C(=O)CN(CCCCN)C(=O)CN(C(=O)CN(C(=O)CN(CCCCN)C(=O)CN(C(=O)CN(C(=O)CN(CCCCN)C(=O)CN(C(=O)CN(C(=O)CNCCCCN)[C@@H](C)c1ccccc1)[C@@H](C)c1ccccc1)[C@@H](C)c1ccccc1)[C@@H](C)c1ccccc1)[C@@H](C)c1ccccc1)[C@@H](C)c1ccccc1)[C@@H](C)c1ccccc1 [compound 1, H-(NLys-Nspe-Nspe)4-NH2] (H-[Nlys][Nspe][Nspe][Nlys][Nspe][Nspe][Nlys][Nspe][Nspe][Nlys][Nspe][Nspe]-NH2)",–,–,–,–,–,–,–,–,–,–,–,–,–,–,–,–,–,–,–,–,"E. coli MIC (E. coli JM109; Table 1, E. coli JM109): 3.5 µM; MIC Staphylococcus aureus NRS100 (COL) ([2]; Table 4, Gram +): 2.2 µM; MIC Proteus mirabilis ATCC 35659 ([3]; Table 4, Gram −): >70.4 µM; MIC P. mirabilis ATCC 35659 ([3]; Table 7A): >128 µg/mL; MIC Staphylococcus aureus NRS119 ([4]; Table 4, Gram +): 2.2 µM; MIC Staphylococcus aureus ATCC 29213 ([5]; Table 4, Gram +): 2.2 µM; MIC Enterococcus faecalis ATCC 29212 ([6]; Table 4, Gram +): 2.2 µM; MIC Serratia marcescens ATCC 13880 ([7]; Table 4, Gram −): 70.4 µM; MIC Enterobacter aerogenes ATCC 35029 ([8]; Table 4, Gram −): 8.8 µM; MIC Enterococcus faecalis 99 (Enterococcus faecalis 99; Table 4, vancomycin resistant): 4.4 µM; MIC Escherichia coli ATCC 25922 ([9]; Table 4, Gram −): 2.2 µM; MIC Staphylococcus aureus VAN1 ([10]; Table 4, vancomycin resistant): 2.2 µM; MIC Proteus vulgaris ATCC 49132 ([11]; Table 4, Gram −): 17.6 µM; MIC Enterococcus faecium 106 (Enterococcus faecium 106; Table 4, vancomycin resistant): 2.2 µM"
"C[C@@H](c1ccccc1)N(CC(N)=O)C(=O)CN(C(=O)CN(CCCCN)C(=O)CN(C(=O)CN(C(=O)CN(CCCCN)C(=O)[C@@H]1CCCN1C(=O)CN(C(=O)CN(CCCCN)C(=O)CN(C(=O)CN(C(=O)CNCCCCN)[C@@H](C)c1ccccc1)[C@@H](C)c1ccccc1)[C@@H](C)c1ccccc1)[C@@H](C)c1ccccc1)[C@@H](C)c1ccccc1)[C@@H](C)c1ccccc1 [1-Pro6, H-Nlys-Nspe-Nspe-Nlys-Nspe-L-Pro-(Nlys-Nspe-Nspe)2-NH2] (H-[Nlys][Nspe][Nspe][Nlys][Nspe]P[Nlys][Nspe][Nspe][Nlys][Nspe][Nspe]-NH2)",–,4.6,–,>128,>72.9,9.1,–,4.6,–,4.6,–,>128,>72.9,72.9,–,36.5,9.1,4.6,18.2,2.3,MICs (E. coli JM109; JM109): < 7 µM
